In PubChem BioAssay AID1963447 (Molecular Pharmacology Branch, DTP, NCI, 2024):
“And” between values parts separate entries of the source, which are not always exact repeats. Identical values can stand only once.

Test system: 885512-296-R-J2-PDC complex spheroid growth, % test/control
Assay: Anticancer human tumor 885512-296-R-J2-PDC patient-derived breast carcinoma cell line growth inhibition [Asc]
Details: for viability, T/C: stronger effect = lower value
How it was run: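 Complex solid-tumor spheroids incorporating human endothelial and mesenchymal stem cells received single agents or combinations over half-log dilution ranges anchored to clinical Cmax.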

[1] = curve of first compound, second compound 0.1 µM
[2] = curve of first compound, second compound 0.316 µM
[3] = curve of first compound, second compound 1 µM
[4] = curve of first compound, second compound 3.16 µM
[5] = curve of first compound, second compound 10 µM
[6] = second compound 0.1 µM, first compound 0.0316 µM
[7] = second compound 0.1 µM, first compound 0.1 µM
[8] = second compound 0.1 µM, first compound 0.316 µM
[9] = second compound 0.1 µM, first compound 1 µM
[10] = second compound 0.1 µM, first compound 3.16 µM
[11] = second compound 0.1 µM, first compound 10 µM
[12] = second compound 0.316 µM, first compound 0.0316 µM
[13] = second compound 0.316 µM, first compound 0.1 µM
[14] = second compound 0.316 µM, first compound 0.316 µM
[15] = second compound 0.316 µM, first compound 1 µM
[16] = second compound 0.316 µM, first compound 3.16 µM
[17] = second compound 0.316 µM, first compound 10 µM
[18] = second compound 1 µM, first compound 0.0316 µM
[19] = second compound 1 µM, first compound 0.1 µM
[20] = second compound 1 µM, first compound 0.316 µM
[21] = second compound 1 µM, first compound 1 µM
[22] = second compound 1 µM, first compound 3.16 µM
[23] = second compound 1 µM, first compound 10 µM
[24] = second compound 3.16 µM, first compound 0.0316 µM
[25] = second compound 3.16 µM, first compound 0.1 µM
[26] = second compound 3.16 µM, first compound 0.316 µM
[27] = second compound 3.16 µM, first compound 1 µM
[28] = second compound 3.16 µM, first compound 3.16 µM
[29] = second compound 3.16 µM, first compound 10 µM
[30] = second compound 10 µM, first compound 0.0316 µM
[31] = second compound 10 µM, first compound 0.1 µM
[32] = second compound 10 µM, first compound 0.316 µM
[33] = second compound 10 µM, first compound 1 µM
[34] = second compound 10 µM, first compound 3.16 µM
[35] = second compound 10 µM, first compound 10 µM
[36] = curve of first compound, second compound 0.03 µM
[37] = curve of first compound, second compound 0.0949 µM
[38] = curve of first compound, second compound 0.3 µM
[39] = curve of first compound, second compound 0.949 µM
[40] = curve of first compound, second compound 3 µM
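Also: spheroids exposed to compounds for seven days.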
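For viability, T/C in this document: 100% = DMSO vehicle control wells.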

O=C(c1cc(Cc2n[nH]c(=O)c3ccccc23)ccc1F)N1CCN(C(=O)C2CC2)CC1 + Cc1c(S(C)(=O)=O)c(-c2cc(F)cc(N3CCN(c4ccc(NS(=O)(=O)c5ccc(NC(CCN6CCC(C(=O)OCCCP(=O)(O)O)CC6)CSc6ccccc6)c(S(=O)(=O)C(F)(F)F)c5)cc4)CC3)c2)c(-c2ccc(Cl)cc2)n1C(C)C was tested, and the IC50 [1] was 4.75 µM, the IC50 [2] was 4.35 µM and the IC50 [3] was 3.76 µM. The IC50 [4] was 3.67 µM, the IC50 [5] was 3.29 µM and the viability, T/C [6] was 90.8%. It also gave a viability, T/C [7] of 105%, a viability, T/C [8] of 95.5% and a viability, T/C [9] of 91%. It also gave a viability, T/C [10] of 67.9%, a viability, T/C [11] of 17.4% and a viability, T/C [12] of 96.4%. It also gave a viability, T/C [13] of 96.7%, a viability, T/C [14] of 104% and a viability, T/C [15] of 96.6%. For the same compound, the viability, T/C [16] was 64.2%, the viability, T/C [17] was 13.1% and the viability, T/C [18] was 83.3%. For the same compound, the viability, T/C [19] was 98.8%, the viability, T/C [20] was 104% and the viability, T/C [21] was 92%. The viability, T/C [22] was 56.8%, the viability, T/C [23] was 11.7% and the viability, T/C [24] was 101%. For the same compound, the viability, T/C [25] was 106%, the viability, T/C [26] was 99% and the viability, T/C [27] was 88.1%. For the same compound, the viability, T/C [28] was 55.7%, the viability, T/C [29] was 11.7% and the viability, T/C [30] was 125%. For the same compound, the viability, T/C [31] was 113%, the viability, T/C [32] was 97.5% and the viability, T/C [33] was 90.3%. For the same compound, the viability, T/C [34] was 47.5% and the viability, T/C [35] was 9.81%.

NC(=O)C(=Cn1cnc(-c2cc(C(F)(F)F)cc(C(F)(F)F)c2)n1)c1cncnc1 + CCN1C(C(=O)NC23CCC(C(=O)O)(CC2)CC3)C(c2cccc(Cl)c2F)C2(C(=O)Nc3cc(Cl)ccc32)C12CCCCC2 gave an IC50 [36] of 0.0451 µM, an IC50 [37] of 0.044 µM and an IC50 [38] of 0.0429 µM. The IC50 [39] was 0.0394 µM, the IC50 [40] was 0.000949 µM and the viability, T/C (second compound 0.03 µM, first compound 0.000949 µM) was 108%. It also gave a viability, T/C (second compound 0.03 µM, first compound 0.003 µM) of 95.1%, a viability, T/C (second compound 0.03 µM, first compound 0.00949 µM) of 111% and a viability, T/C (second compound 0.03 µM, first compound 0.03 µM) of 72.4%. The viability, T/C (second compound 0.03 µM, first compound 0.0949 µM) was 9.51%, the viability, T/C (second compound 0.03 µM, first compound 0.3 µM) was 1.11% and the viability, T/C (second compound 0.0949 µM, first compound 0.000949 µM) was 98.6%. The viability, T/C (second compound 0.0949 µM, first compound 0.003 µM) was 93.7%, the viability, T/C (second compound 0.0949 µM, first compound 0.00949 µM) was 113% and the viability, T/C (second compound 0.0949 µM, first compound 0.03 µM) was 72.2%. The viability, T/C (second compound 0.0949 µM, first compound 0.0949 µM) was 6.79%, the viability, T/C (second compound 0.0949 µM, first compound 0.3 µM) was 0.89% and the viability, T/C (second compound 0.3 µM, first compound 0.000949 µM) was 74.4%. It also gave a viability, T/C (second compound 0.3 µM, first compound 0.003 µM) of 91%, a viability, T/C (second compound 0.3 µM, first compound 0.00949 µM) of 92.2% and a viability, T/C (second compound 0.3 µM, first compound 0.03 µM) of 69.3%. The viability, T/C (second compound 0.3 µM, first compound 0.0949 µM) was 6.76%, the viability, T/C (second compound 0.3 µM, first compound 0.3 µM) was 0.83% and the viability, T/C (second compound 0.949 µM, first compound 0.000949 µM) was 70.3%. For the same compound, the viability, T/C (second compound 0.949 µM, first compound 0.003 µM) was 72.2%, the viability, T/C (second compound 0.949 µM, first compound 0.00949 µM) was 80.9% and the viability, T/C (second compound 0.949 µM, first compound 0.03 µM) was 63.4%. It also gave a viability, T/C (second compound 0.949 µM, first compound 0.0949 µM) of 6.15%, a viability, T/C (second compound 0.949 µM, first compound 0.3 µM) of 1.27% and a viability, T/C (second compound 3 µM, first compound 0.000949 µM) of 42.7%. For the same compound, the viability, T/C (second compound 3 µM, first compound 0.003 µM) was 48.9%, the viability, T/C (second compound 3 µM, first compound 0.00949 µM) was 48.3% and the viability, T/C (second compound 3 µM, first compound 0.03 µM) was 55%. For the same compound, the viability, T/C (second compound 3 µM, first compound 0.0949 µM) was 4.94% and the viability, T/C (second compound 3 µM, first compound 0.3 µM) was 0.76%.

C#Cc1c(F)ccc2cc(O)cc(-c3ncc4c(N5CC6CCC(C5)N6)nc(OCC56CCCN5CC(F)C6)nc4c3F)c12 (configuration not stated) + Cc1c(S(C)(=O)=O)c(-c2cc(F)cc(N3CCN(c4ccc(NS(=O)(=O)c5ccc(NC(CCN6CCC(C(=O)OCCCP(=O)(O)O)CC6)CSc6ccccc6)c(S(=O)(=O)C(F)(F)F)c5)cc4)CC3)c2)c(-c2ccc(Cl)cc2)n1C(C)C was tested, and the IC50 [1] was over 10 µM, the IC50 [2] was over 10 µM and the IC50 [3] was over 10 µM. The IC50 [4] was over 10 µM, the IC50 [5] was over 10 µM and the viability, T/C [6] was 96.9%. The viability, T/C [7] was 78.9%, the viability, T/C [8] was 85.1% and the viability, T/C [9] was 77.4%. For the same compound, the viability, T/C [10] was 74.1%, the viability, T/C [11] was 70.9% and the viability, T/C [12] was 96.8%. It also gave a viability, T/C [13] of 105%, a viability, T/C [14] of 90.9% and a viability, T/C [15] of 72.4%. The viability, T/C [16] was 95.4%, the viability, T/C [17] was 71% and the viability, T/C [18] was 88.3%. For the same compound, the viability, T/C [19] was 82.9%, the viability, T/C [20] was 93% and the viability, T/C [21] was 66.6%. It also gave a viability, T/C [22] of 86%, a viability, T/C [23] of 66.9% and a viability, T/C [24] of 88.3%. For the same compound, the viability, T/C [25] was 112%, the viability, T/C [26] was 82.7% and the viability, T/C [27] was 76.5%. It also gave a viability, T/C [28] of 79.8%, a viability, T/C [29] of 76.4% and a viability, T/C [30] of 115%. It also gave a viability, T/C [31] of 112%, a viability, T/C [32] of 101% and a viability, T/C [33] of 117%. For the same compound, the viability, T/C [34] was 103% and the viability, T/C [35] was 51.4%.

For O=C(c1cc(Cc2n[nH]c(=O)c3ccccc23)ccc1F)N1CCN(C(=O)C2CC2)CC1, the viability, T/C (compound 0.0316 µM) was 99.2% and 96.5% and 98%, the viability, T/C (compound 0.1 µM) was 113% and 117% and 108% and the viability, T/C (compound 0.316 µM) was 102% and 115% and 97.6%. The viability, T/C (compound 1 µM) was 98.8% and 98.3% and 107%, the viability, T/C (compound 3.16 µM) was 71.3% and 71.5% and 75.3% and the viability, T/C (compound 10 µM) was 19.2% and 17.5% and 20.8%. For the same compound, the IC50 (curve of compound) was 5.07 µM and 4.97 µM and 5.4 µM.

Work on O=C(c1ccc(F)c(F)c1Nc1ccc(I)cc1F)N1CC(O)([C@@H]2CCCCN2)C1 + CCN1C(C(=O)NC23CCC(C(=O)O)(CC2)CC3)C(c2cccc(Cl)c2F)C2(C(=O)Nc3cc(Cl)ccc32)C12CCCCC2 yielded an IC50 [36] of 0.127 µM, an IC50 [37] of 0.148 µM and an IC50 [38] of 0.132 µM. It also gave an IC50 [39] of 0.0553 µM, an IC50 [40] of under 0.00316 µM and a viability, T/C (second compound 0.03 µM, first compound 0.00316 µM) of 100%. For the same compound, the viability, T/C (second compound 0.03 µM, first compound 0.01 µM) was 74.2%, the viability, T/C (second compound 0.03 µM, first compound 0.0316 µM) was 63.5% and the viability, T/C (second compound 0.03 µM, first compound 0.1 µM) was 62%. It also gave a viability, T/C (second compound 0.03 µM, first compound 0.316 µM) of 39.4%, a viability, T/C (second compound 0.03 µM, first compound 1 µM) of 18.7% and a viability, T/C (second compound 0.0949 µM, first compound 0.00316 µM) of 89.4%. It also gave a viability, T/C (second compound 0.0949 µM, first compound 0.01 µM) of 89.3%, a viability, T/C (second compound 0.0949 µM, first compound 0.0316 µM) of 66.5% and a viability, T/C (second compound 0.0949 µM, first compound 0.1 µM) of 57.1%. It also gave a viability, T/C (second compound 0.0949 µM, first compound 0.316 µM) of 39.1%, a viability, T/C (second compound 0.0949 µM, first compound 1 µM) of 17.5% and a viability, T/C (second compound 0.3 µM, first compound 0.00316 µM) of 83.5%. The viability, T/C (second compound 0.3 µM, first compound 0.01 µM) was 80.6%, the viability, T/C (second compound 0.3 µM, first compound 0.0316 µM) was 65.7% and the viability, T/C (second compound 0.3 µM, first compound 0.1 µM) was 55.2%. It also gave a viability, T/C (second compound 0.3 µM, first compound 0.316 µM) of 36.8%, a viability, T/C (second compound 0.3 µM, first compound 1 µM) of 18.1% and a viability, T/C (second compound 0.949 µM, first compound 0.00316 µM) of 67.7%. For the same compound, the viability, T/C (second compound 0.949 µM, first compound 0.01 µM) was 53.4%, the viability, T/C (second compound 0.949 µM, first compound 0.0316 µM) was 54% and the viability, T/C (second compound 0.949 µM, first compound 0.1 µM) was 48.8%. For the same compound, the viability, T/C (second compound 0.949 µM, first compound 0.316 µM) was 33.9%, the viability, T/C (second compound 0.949 µM, first compound 1 µM) was 17.5% and the viability, T/C (second compound 3 µM, first compound 0.00316 µM) was 42.7%. The viability, T/C (second compound 3 µM, first compound 0.01 µM) was 35.9%, the viability, T/C (second compound 3 µM, first compound 0.0316 µM) was 31.4% and the viability, T/C (second compound 3 µM, first compound 0.1 µM) was 35.4%. It also gave a viability, T/C (second compound 3 µM, first compound 0.316 µM) of 22.2% and a viability, T/C (second compound 3 µM, first compound 1 µM) of 14.7%.
